Reference: patent US6822100B2 (Bristol-Myers Squibb Company, priority 2001, dated 2004)
Where a name gives a salt, the structure may show the parent alone. Read-outs that look alike come from different tables or passages of the source.

Assays:
[1] = molecular target: T1, recombinant human dopamine D2L receptors (Homo sapiens, UniProt P14416); test: Dopamine Binding Assay; conditions: HEK-D2L cell membranes, 150 pM [3H]-spiperone, Cheng and Prusoff
T1 construct: expressed in transfected cells; host or cells: HEK-293 (HEK-D2L), membrane homogenates
T1 sequence (P14416 whole entry): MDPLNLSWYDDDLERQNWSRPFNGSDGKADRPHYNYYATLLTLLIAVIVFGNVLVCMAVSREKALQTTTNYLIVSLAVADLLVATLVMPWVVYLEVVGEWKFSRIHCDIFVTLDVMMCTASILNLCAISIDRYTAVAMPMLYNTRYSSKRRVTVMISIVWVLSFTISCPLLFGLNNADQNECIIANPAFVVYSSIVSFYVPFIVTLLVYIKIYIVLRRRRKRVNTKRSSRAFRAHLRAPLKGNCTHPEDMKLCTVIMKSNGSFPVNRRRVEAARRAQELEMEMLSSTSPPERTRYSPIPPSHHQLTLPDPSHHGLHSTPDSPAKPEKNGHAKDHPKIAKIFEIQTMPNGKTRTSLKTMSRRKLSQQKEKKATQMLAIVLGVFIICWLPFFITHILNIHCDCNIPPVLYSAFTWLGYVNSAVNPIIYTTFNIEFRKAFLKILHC
Method in brief: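 Competition binding on HEK-293 membranes stably expressing human D2L (~5 μg protein) with 150 pM [3H]-spiperone, 1.5 h at 22 °C in 50 mM Tris pH 7.4, 1 mM EDTA, 6 mM MgCl2. Filtration read-out; non-specific binding defined with 2 μM (+)butaclamol, Ki by Cheng-Prusoff.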

[2] = molecular target: T2, human serotonin transporters (Homo sapiens, UniProt P31645); test: Serotonin Transporter Binding Assay; conditions: HEK-hSERT cell membranes, 1 nM [3H]-citalopram, Cheng and Prusoff
T2 construct: expressed in transfected cells; host or cells: HEK-293 (HEK-hSERT), membrane homogenates
T2 sequence (P31645 whole entry): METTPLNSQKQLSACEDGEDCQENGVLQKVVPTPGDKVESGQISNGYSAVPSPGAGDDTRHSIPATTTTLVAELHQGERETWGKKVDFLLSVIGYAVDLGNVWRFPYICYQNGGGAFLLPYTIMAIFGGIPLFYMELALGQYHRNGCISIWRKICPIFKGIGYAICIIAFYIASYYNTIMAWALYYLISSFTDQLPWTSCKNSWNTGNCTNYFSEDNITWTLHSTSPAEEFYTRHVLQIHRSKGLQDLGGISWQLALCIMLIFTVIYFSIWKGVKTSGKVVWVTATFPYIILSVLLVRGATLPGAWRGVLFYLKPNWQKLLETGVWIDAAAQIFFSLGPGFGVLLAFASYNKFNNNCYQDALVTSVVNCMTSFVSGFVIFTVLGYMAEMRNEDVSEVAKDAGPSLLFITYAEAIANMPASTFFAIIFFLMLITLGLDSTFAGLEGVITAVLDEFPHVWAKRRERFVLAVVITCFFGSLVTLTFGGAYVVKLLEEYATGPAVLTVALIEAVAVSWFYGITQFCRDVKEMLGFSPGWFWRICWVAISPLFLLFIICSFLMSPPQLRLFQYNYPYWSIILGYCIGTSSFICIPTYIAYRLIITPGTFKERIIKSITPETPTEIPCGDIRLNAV
Method in brief: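 Displacement of 1 nM [^3H]-citalopram (1 hr, 25° C, Tris pH 7.4 with NaCl/KCl) from membranes of HEK-293 cells stably expressing human SERT, with bound ligand read after filtration. 10 μM fluoxetine defined non-specific binding. Ki values were derived via Cheng–Prusoff from IC50 displacement-curve midpoints.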

Compound	Ki [1] [nM]	Ki ([2]; read-out: SERT Ki) [nM]	Ki ([2]; SERT Ki (nM)) [nM]
COc1ccc(CNCC2CC2c2c[nH]c3ccc(F)cc23)cc1 (stereo not drawn) [Example 52, trans-2-[5-Fluoroindol-3-yl]-1-[N-(4-methoxybenzyl)aminomethyl]-cyclopropane]	100 to 1000	10 to 100	–
Fc1ccc2[nH]cc(C3CC3CNCc3ccccc3F)c2c1 (stereo not drawn) [Example 53, trans-1-[N-(2-Fluorobenzyl)aminomethyl]2-[5-fluoroindol-3-yl]-cyclopropane]	100 to 1000	10 to 100	–
Fc1cccc(CNCC2CC2c2c[nH]c3ccc(F)cc23)c1 (stereo not drawn) [Example 54, trans-1-[N-(3-Fluorobenzyl)aminomethyl]2-[5-fluoroindol-3-yl]-cyclopropane]	100 to 1000	10 to 100	–
Fc1ccc(CNCC2CC2c2c[nH]c3ccc(F)cc23)cc1 (stereo not drawn) [Example 55, trans-1-[N-(4-Fluorobenzyl)aminomethyl]2-[5-fluoroindol-3-yl]-cyclopropane]	100 to 1000	10 to 100	–
Fc1ccc2[nH]cc(C3CC3CNCc3ccccn3)c2c1 (stereo not drawn) [Example 56, trans-2-[5-Fluoroindol-3-yl]-1-[N-(2-pyridylmethyl)aminomethyl]-cyclopropane]	100 to 1000	10 to 100	–
Fc1ccc2[nH]cc(C3CC3CNCc3cccnc3)c2c1 (stereo not drawn) [Example 57, trans-2-[5-Fluoroindol-3-yl]-1-[N-(3-pyridylmethyl)aminomethyl]-cyclopropane]	10 to 100	10 to 100	–
Fc1ccc2[nH]cc(C3CC3CNCc3ccncc3)c2c1 (stereo not drawn) [Example 58, trans-2-[5-Fluoroindol-3-yl]-1-[N-(4-pyridylmethyl)aminomethyl]-cyclopropane]	10 to 100	10 to 100	–
Fc1ccc2[nH]cc(C3CC3CNCCc3ccccc3F)c2c1 (stereo not drawn) [Example 59, trans-2-[5-Fluoroindol-3-yl]-1-[N-(2-fluorophenyl)ethylaminomethyl]-cyclopropane]	10 to 100	10 to 100	–
Fc1cccc(CCNCC2CC2c2c[nH]c3ccc(F)cc23)c1 (stereo not drawn) [Example 60, trans-2-[5-Fluoroindol-3-yl]-1-[N-(3-fluorophenyl)ethylaminomethyl]-cyclopropane]	100 to 1000	10 to 100	–
Fc1ccc(CCNCC2CC2c2c[nH]c3ccc(F)cc23)cc1 (stereo not drawn) [Example 61, trans-2-[5-Fluoroindol-3-yl]-1-[N-(4-fluorophenyl)ethylaminomethyl]-cyclopropane]	10 to 100	10 to 100	–
Fc1ccc2[nH]cc(C3CC3CNCCCc3ccccc3)c2c1 (stereo not drawn) [Example 62, trans-2-[5-Fluoroindol-3-yl]-1-[N-3-phenylpropylaminomethyl]-cyclopropane]	10 to 100	1 to 10	–
Fc1ccc2[nH]cc(C3CC3CNCCCc3cccnc3)c2c1 (stereo not drawn) [Example 63, trans-2-[5-Fluoroindol-3-yl]-1-[N-3-(3-pyridyl)propylaminomethyl]-cyclopropane]	10 to 100	10 to 100	–
Fc1ccc2[nH]cc(C3CC3CNCCc3c[nH]cn3)c2c1 (stereo not drawn) [Example 64, trans-2-[5-Fluoroindol-3-yl]-1-[N-2-(4-imidazolyl)ethylaminomethyl]-cyclopropane]	10 to 100	10 to 100	–
Fc1ccc2[nH]cc(C3CC3CNCCCn3ccnc3)c2c1 (stereo not drawn) [Example 65, trans-2-[5-Fluoroindol-3-yl]-1-[N-3-(1-imidazolyl)propylaminomethyl]-cyclopropane]	10 to 100	10 to 100	–
Fc1ccc2[nH]cc(C3CC3CNCc3cccs3)c2c1 (stereo not drawn) [Example 66, trans-2-[5-Fluoroindol-3-yl]-1-[N-2-thiopheneylmethylaminomethyl]-cyclopropane]	100 to 1000	10 to 100	–
Fc1ccc2[nH]cc(C3CC3CNCCc3cccs3)c2c1 (stereo not drawn) [Example 67, trans-2-[5-Fluoroindol-3-yl]-1-[N-2-(2-thiopheneyl)ethylaminomethyl]-cyclopropane]	10 to 100	10 to 100	–
Fc1ccc2[nH]cc(C3CC3CNCCc3c[nH]c4ccccc34)c2c1 (stereo not drawn) [Example 68, trans-2-[5-Fluoroindol-3-yl]-1-[N-2-(3-indolyl)ethylaminomethyl]-cyclopropane]	10 to 100	1 to 10	–
Fc1ccc2[nH]cc(C3CC3CNCC3CC3)c2c1 (stereo not drawn) [Example 69, trans-1-[N-Cyclopropylmethylaminomethyl]-2-[5-fluoroindol-3-yl]-cyclopropane]	100 to 1000	10 to 100	–
Fc1ccc2[nH]cc(C3CC3CNC3CCCCC3)c2c1 (stereo not drawn) [Example 70, trans-1-[N-Cyclohexylaminomethyl]-2-[5-fluoroindol-3-yl]-cyclopropane]	100 to 1000	10 to 100	–
Fc1ccc2[nH]cc(C3CC3CNCC3CCCCC3)c2c1 (stereo not drawn) [Example 71, trans-1-[N-Cyclohexylmethylaminomethyl]-2-[5-fluoroindol-3-yl]-cyclopropane]	10 to 100	10 to 100	–
CC(C)CCNCC1CC1c1c[nH]c2ccc(F)cc12 (stereo not drawn) [Example 72, trans-2-[5-Fluoroindol-3-yl]-1-[N-3-methyl-butylaminomethyl]-cyclopropane]	100 to 1000	10 to 100	–
Fc1ccc2[nH]cc(C3CC3CN3CCC(Cc4ccccc4)CC3)c2c1 (stereo not drawn) [Example 73, trans-1-(4-Benzyl-piperidin-1-yl-methyl)-2-[5-fluoroindol-3-yl]-cyclopropane]	10 to 100	1 to 10	–
Fc1ccc2[nH]cc(C3CC3CN3CCNCC3)c2c1 (stereo not drawn) [Example 74, trans-2-[5-Fluoroindol-3-yl]-1-(piperazin-1-yl-methyl)-cyclopropane]	> 1000	–	1 to 10

Compound	Ki [1] [nM]	Ki ([2]; read-out: SERT Ki) [nM]	Ki ([2]; SERT Ki (nM)) [nM]
Fc1ccc2[nH]cc(C3CC3CN3CCN(Cc4ccccc4)CC3)c2c1 (stereo not drawn) [Example 75, trans-1-[4-Benzyl-piperazin-1-yl-methyl]-2-[5-fluoroindol-3-yl]-cyclopropane]	10 to 100	10 to 100	–
CCCN(CCC)CC1CC1c1c[nH]c2ccc(F)cc12 (stereo not drawn) [Example 77, trans-1-[N,N-Dipropylaminomethyl]-2-[5-fluoroindol-3-yl]-cyclopropane]	100 to 1000	10 to 100	–
Fc1ccc2[nH]cc(C3CC3CN3CCCC3)c2c1 (stereo not drawn) [Example 84, trans-2-[5-Fluoroindol-3-yl]-1-[pyrrolidin-1-yl-methyl]-cyclopropane]	100 to 1000	1 to 10	–
Fc1ccc2[nH]cc(C3CC3CN3CCCCC3)c2c1 (stereo not drawn) [Example 85, trans-2-[5-Fluoroindol-3-yl]-1-[piperidin-1-yl-methyl]-cyclopropane]	> 1000	–	10 to 100
CNC[C@H]1C[C@@H]1c1c[nH]c2ccc(C#N)cc12 [Example 120, (1S,2S)-trans-2-[5-Cyanoindol-3-yl]-1-(N-methylaminomethyl)cyclopropane]	100 to 1000	1 to 10	–
CC(C1CC1c1c[nH]c2ccc(C#N)cc12)N1CCCC1 (stereo not drawn) [Example 124, trans-3-[2-(1-Pyrrolidin-1-yl-ethyl)-cyclopropyl]-1H-indole-5-carbonitrile]	> 1000	–	1 to 10
CN(C)C[C@@H]1C[C@H]1c1c[nH]c2ccc(C#N)cc12 [Example 127a, (1R,2R)-trans-2-[5-Cyanoindol-3-yl]-1-(N,N-dimethylaminomethyl)cyclopropane maleate salt]	> 1000	10 to 100	–
CN(C)C[C@@H]1C[C@H]1c1c[nH]c2ccc(F)cc12 [Example 128a, (1R,2R)-trans-1-(N,N-dimethylaminomethyl)-2-[5-fluoroindol-3-yl]-cyclopropane maleate salt]	> 1000	10 to 100	–
CN(Cc1ccccc1)CC1CC1c1c[nH]c2ccc(F)cc12 (stereo not drawn) [Example 131]	100 to 1000	1 to 10	–
CNCC1CC1c1c[nH]c2ccc(F)cc12 (stereo not drawn) [Example 132]	100 to 1000	10 to 100	–
CCN(C)CC1CC1c1c[nH]c2ccc(F)cc12 (stereo not drawn) [Example 133]	100 to 1000	10 to 100	–
CCOC(=O)NCCN(C)CC1CC1c1c[nH]c2ccc(C#N)cc12 (stereo not drawn) [Example 134]	> 1000	1 to 10	–
CCNCC1CC1c1c[nH]c2ccc(C#N)cc12 (stereo not drawn) [Example 135]	10 to 100	1 to 10	–
CCNCC1CC1c1c[nH]c2ccc(F)cc12 (stereo not drawn) [Example 136]	> 1000	–	10 to 100
N#Cc1ccc2[nH]cc(C3CC3CN3CCOCC3)c2c1 (stereo not drawn) [Example 137]	> 1000	–	10 to 100
CN(CC1CC1c1c[nH]c2ccc(C#N)cc12)c1ccccc1 (stereo not drawn) [Example 138]	> 1000	10 to 100	–
Fc1ccc2[nH]cc(C3CC3CNC34C[C@H]5C[C@@H](C3)C[C@@H](C4)C5)c2c1 (stereo partly drawn) [Example 139]	10 to 100	10 to 100	–
CC1CCN(CC2CC2c2c[nH]c3ccc(F)cc23)CC1 (stereo not drawn) [Example 140]	100 to 1000	100 to 1000	–
Fc1ccc2[nH]cc(C3CC3CN3CCOCC3)c2c1 (stereo not drawn) [Example 141]	100 to 1000	10 to 100	–
CCCNCC1CC1c1c[nH]c2ccc(F)cc12 (stereo not drawn) [Example 142]	100 to 1000	10 to 100	–
CN(C)CC1CC1c1c[nH]c2ccccc12 (stereo not drawn) [Example 143]	> 1000	–	10 to 100
CCN(CC)CCC1CC1c1c[nH]c2ccc(C#N)cc12 (stereo not drawn) [Example 144, 3-[2-(2-Diethylamino-ethyl)-cyclopropyl]-1H-indole-5-carbonitrile]	100 to 1000	10 to 100	–
